Results published in patent US9328104B2, “Selective androgen receptor modulators” (Pfizer Inc., priority 2012, dated 2016).

Target: T1, full length human Androgen Receptor (AR) (Homo sapiens, UniProt P10275)
T1 construct: transiently transfected in T225 cm^2 flasks with a full length human Androgen Receptor (AR) cDNA; expressed in transfected cells; host or cells: CV-1 cells (ATCC CCL-70), transiently transfected with AR cDNA in pcDNA3 and ARE-luciferase in pGL3
T1 sequence (P10275 1-920): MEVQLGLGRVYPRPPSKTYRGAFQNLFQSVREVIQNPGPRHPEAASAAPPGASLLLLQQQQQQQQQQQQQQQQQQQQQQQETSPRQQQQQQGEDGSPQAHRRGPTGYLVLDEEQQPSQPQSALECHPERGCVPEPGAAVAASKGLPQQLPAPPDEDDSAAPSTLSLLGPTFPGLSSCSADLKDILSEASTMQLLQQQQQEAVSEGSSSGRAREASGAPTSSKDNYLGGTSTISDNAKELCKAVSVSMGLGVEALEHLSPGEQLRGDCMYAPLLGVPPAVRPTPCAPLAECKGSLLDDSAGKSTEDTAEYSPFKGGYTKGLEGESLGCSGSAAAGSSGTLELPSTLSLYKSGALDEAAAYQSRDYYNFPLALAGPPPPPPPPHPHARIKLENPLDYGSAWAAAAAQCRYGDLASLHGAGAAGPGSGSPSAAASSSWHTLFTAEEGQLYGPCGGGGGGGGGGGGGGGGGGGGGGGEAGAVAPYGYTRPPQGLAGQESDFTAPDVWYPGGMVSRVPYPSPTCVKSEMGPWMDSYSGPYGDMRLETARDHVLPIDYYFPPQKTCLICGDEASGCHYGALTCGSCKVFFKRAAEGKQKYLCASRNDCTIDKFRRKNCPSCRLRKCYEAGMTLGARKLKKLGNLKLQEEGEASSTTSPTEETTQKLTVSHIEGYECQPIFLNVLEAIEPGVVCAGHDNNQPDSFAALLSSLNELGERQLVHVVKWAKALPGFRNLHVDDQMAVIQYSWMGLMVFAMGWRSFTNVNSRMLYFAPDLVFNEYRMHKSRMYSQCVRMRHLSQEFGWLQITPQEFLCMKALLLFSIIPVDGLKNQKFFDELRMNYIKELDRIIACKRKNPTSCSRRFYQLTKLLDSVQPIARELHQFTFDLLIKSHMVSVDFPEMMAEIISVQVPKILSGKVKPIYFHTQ
Test: Androgen Receptor-Mediated Transcriptional Assay (ARE-luciferase reporter in transiently transfected CV-1 cells)
Format: cell-based
Procedure: Androgen Receptor-Mediated Transcriptional Assay Summary
CV-1 cells (American Tissue Culture Collection cat# CCL-70) were expanded in Growth Media and transiently transfected in T225 cm^2 flasks with a full length human Androgen Receptor (AR) cDNA in the pcDNA3 expression vector and a human Androgen Response Element (ARE)-luciferase cDNA in the pGL3 vector (both from Invitrogen). DNA (μg) and Lipofectamine (μl) at a ratio of 1:3 were incubated with the cells in a total volume of 55 mL Basal Media for 4 hours. Cells were harvested by trypsinization and frozen back (−150° C. cryomed) at a concentration of 4.3 million cells/mL.
On the day of the assay, frozen cells were thawed and re-suspended in Re-suspension Media and plated at 40,000 cells/well (in 100 μL volume) in 96 well white plates and were incubated for at least 4 h at 37° C., 5% CO2. After incubation, cells were treated with the compounds to be screened. 10 mM stocks of the compounds were serially diluted 1:10 in 100% DMSO followed by an additional 1:100 dilution in Assay Media. These dilution series were added to the cell plates resulting in a further 1:10 dilution and a final % DMSO of 0.1%. The vehicle control wells also contained this dilution of DMSO and the positive control wells contained […] (DHT) as an AR agonist at final concentration of 0.3 nM in 0.1% DMSO. Cells were incubated for 16-18 hours at 37° C. and 5% CO2. Then the culture media was removed from and the cells were lysed in 20 μL of cell lysis reagent for 5 minutes at room temperature. 50 μL of luciferase reagent was added to each well and luminescence, over 5 seconds, was measured.
EC50 (half maximal effective concentration) was calculated from concentration series plots which generated sigmoidal curves. Xlfit software was used to plot the best fit of the % effect vs concentration and to calculate the EC50.
Reagents and Materials used in the Androgen Receptor-Mediated Transcriptional Assay include the following: • Growth Media—DMEM/high glucose—10% FBS: 500 ml phenol red DMEM/high glucose (Gibco, Grand Island N.Y., cat #10569-010), 10% non heat-inactivated Fetal Bovine Serum (FBS) (Atlanta Biologicals, Norcross Ga., cat #S-12450), 1% Nonessential Amino Acids (Gibco, cat #11140-050), 1% Penicillin-Streptomycin (Gibco, cat #15140-122) • Basal Media—phenol red free DMEM/high glucose (Gibco, cat #31053-028)+1% Na Pyruvate (Gibco, cat #11360-070), 1% Nonessential Amino Acids (Gibco, cat #11140-050), 1% GlutaMAX-I (Gibco, cat #35050-061) • Re-suspension Media—basal media+1% Penicillin-Streptomycin (Gibco, cat #15140-122) • Assay Media—basal media+5% charcoal stripped FBS (HyClone, Logan Utah, Cat #SH30068)+1% Penicillin-Streptomycin (Gibco, cat #15140-122) • Cell Lysis Reagent—Promega, Cat #PAE1531 • Luciferase Reagent—Promega, Cat #PAE1483

Compound: C[C@@H]1CC[C@H]([C@@H](O)C(F)(F)F)N1c1ccc2c(C#N)nccc2c1 [Compound 30, 6-{(2R,5R)-2-methyl-5-[(1R)-2,2,2-trifluoro-1-hydroxyethyl]pyrrolidin-1-yl}isoquinoline-1-carbonitrile]
- EC50: 100 pM
